Strand notation (5' to 3'): a small letter for the sugar, then the base; units joined by * are phosphorothioate-linked, units joined directly phosphodiester-linked; [ ] holds rarer units or linkages, { } end groups; capitals alone tell only the bases. e = 2'-O-(2-methoxyethyl) (MOE); [5mC] = 5-methylcytosine; d = 2'-deoxy (DNA)
Columns and labels:
[1] = system: Mouse B7-2 mRNA; experiment: Mouse B7-2 mRNA expression, screened as in Example 4; format: cell-based; design: % mRNA INHIBITION: concentration or dose not given beside the values; settings: for % mRNA INHIBITION: screened as in Example 4; for % mRNA EXPRESSION: screened as in Example 4, basal = 100.0%
Experimental: For ribonuclease protection assays, cells were harvested 18 hours after completion of oligonucleotide treatment using a Totally RNA™ kit (Ambion, Austin, Tex.). The probes for the assay were generated from plasmids pcB7-2 (linearized by digestion with Bgl II) and pTRI-b-actin (Ambion Inc., Austin, Tex.). In vitro transcription of the linearized plasmid from the SP6 promoter was performed in the presence of α-^32P-UTP (800 Ci/mmole) yielding an antisense RNA complementary to the 3′ end of B7-2 (position 1044-1391). The probe was gel-purified after treatment with DNase I to remove DNA template. Ribonuclease protection assays were carried out using an RPA II™ kit (Ambion) according to the manufacturer's directions. Total RNA (5 μg) was hybridized overnight, at 42° C., with 10^5 cpm of the B7-2 probe or a control beta-actin probe. The hybridization reaction was then treated, at 37° C. for 30 minutes, with 0.4 units of RNase A and 2 units of RNase T1. Protected RNA was precipitated, resuspended in 10 μL of gel loading buffer and electrophoresed on a 6% acrylamide gel with 50% w/v urea at 20 W. The gel was then exposed and the lanes quantitated using a PhosphorImager (Molecular Dynamics, Sunnyvale, Calif.) essentially according to the manufacturer's instructions.
Oligonucleotides were screened as described in Example 4.

[2] = system: Mouse B7-1 mRNA; experiment: Mouse B7-1 mRNA expression, screened as in Example 4; format: cell-based; design: % mRNA INHIBITION: concentration or dose not given beside the values; settings: Table 10

Row | Substance | % mRNA INHIBITION [1] [%] | % mRNA EXPRESSION [1] [%] | % mRNA EXPRESSION [2] [%] | % mRNA INHIBITION [2] [%]
1 | 18084 (antisense eG*e[5mC]*eT*eG*e[5mC]*d[5mC]*dT*dA*d[5mC]*dA*dG*dG*dA*dG*d[5mC]*e[5mC]*eA*e[5mC]*eT*e[5mC]) [compound 18084] | 63.6 | 36.4 |  | 
2 | 18085 (antisense eT*e[5mC]*eA*eA*eG*dT*d[5mC]*d[5mC]*dG*dT*dG*d[5mC]*dT*dG*d[5mC]*e[5mC]*eT*eA*e[5mC]*eA) [compound 18085] | 65.0 | 35.0 |  | 
3 | 18086 (antisense eG*eT*e[5mC]*eT*eA*d[5mC]*dA*dG*dG*dA*dG*dT*d[5mC]*dT*dG*eG*eT*eT*eG*eT) [compound 18086] | 59.9 | 40.1 |  | 
4 | 18087 (antisense eA*eG*e[5mC]*eT*eT*dG*d[5mC]*dG*dT*d[5mC]*dT*d[5mC]*d[5mC]*dA*d[5mC]*eG*eG*eA*eA*eA) [compound 18087] | 57.9 | 42.1 |  | 
5 | 18088 (antisense eT*e[5mC]*eA*e[5mC]*eA*d[5mC]*dT*dA*dT*d[5mC]*dA*dA*dG*dT*dT*eT*e[5mC]*eT*e[5mC]*eT) [compound 18088] | 47.7 | 52.3 |  | 
6 | 18090 (antisense eG*eT*eG*eA*eA*dG*dT*d[5mC]*dG*dT*dA*dG*dA*dG*dT*e[5mC]*e[5mC]*eA*eG*eT) [compound 18090] | 63.4 | 36.6 |  | 
7 | 18091 (antisense eG*eT*eG*eA*e[5mC]*d[5mC]*dT*dT*dG*d[5mC]*dT*dT*dA*dG*dA*e[5mC]*eG*eT*eG*e[5mC]) [compound 18091] | 62.9 | 37.1 |  | 
8 | 18092 (antisense e[5mC]*eA*eT*e[5mC]*eT*dT*d[5mC]*dT*dT*dA*dG*dG*dT*dT*dT*e[5mC]*eG*eG*eG*eT) [compound 18092] | 41.1 | 58.9 |  | 
9 | 18093 (antisense eG*eG*e[5mC]*eT*eG*dT*dT*dG*dG*dA*dG*dA*dT*dA*d[5mC]*eT*eG*eA*eA*e[5mC]) [compound 18093] | 67.3 | 32.7 |  | 
10 | 18094 (antisense eG*eG*eG*eA*eA*dT*dG*dA*dA*dA*dG*dA*dG*dA*dG*eA*eG*eG*e[5mC]*eT) [compound 18094] | 36.2 | 63.8 |  | 
11 | 18095 (antisense eA*e[5mC]*eA*eT*eA*d[5mC]*dA*dA*dT*dG*dA*dT*dG*dA*dG*e[5mC]*eA*eG*e[5mC]*eA) [compound 18095] | 65.7 | 34.3 |  | 
12 | 18096 (antisense eG*eT*e[5mC]*eT*e[5mC]*dT*d[5mC]*dT*dG*dT*d[5mC]*dA*dG*d[5mC]*dG*eT*eT*eA*e[5mC]*eT) [compound 18096] | 67.7 | 32.3 |  | 
13 | 18098 (antisense eG*eG*eA*eT*eT*dG*d[5mC]*d[5mC]*dA*dA*dG*d[5mC]*d[5mC]*d[5mC]*dA*eT*eG*eG*eT*eG) [compound 18098] | 67.8 | 32.2 |  | 
14 | 18099 (antisense eG*e[5mC]*eA*eA*eT*dT*dT*dG*dG*dG*dG*dT*dT*d[5mC]*dA*eA*eG*eT*eT*e[5mC]) [compound 18099] | 33.2 | 66.8 |  | 
15 | 18100 (antisense e[5mC]*eA*eA*eT*e[5mC]*dA*dG*d[5mC]*dT*dG*dA*dG*dA*dA*d[5mC]*eA*eT*eT*eT*eT) [compound 18100] | 32.8 | 67.2 |  | 
16 | 18101 (antisense eT*eT*eT*eT*eG*dT*dA*dT*dA*dA*dA*dA*d[5mC]*dA*dA*eT*e[5mC]*eA*eT*eA) [compound 18101] | 11.1 | 88.9 |  | 
17 | 18102 (antisense e[5mC]*e[5mC]*eT*eT*e[5mC]*dA*d[5mC]*dT*d[5mC]*dT*dG*d[5mC]*dA*dT*dT*eT*eG*eG*eT*eT) [compound 18102] | 66.2 | 33.8 |  | 
18 | 18103 (antisense eT*eG*e[5mC]*eA*eT*dG*dT*dT*dA*dT*d[5mC]*dA*d[5mC]*d[5mC]*dA*eT*eA*e[5mC]*eT*e[5mC]) [compound 18103] | 69.8 | 30.2 |  | 

Row | Substance | % mRNA INHIBITION [1] [%] | % mRNA EXPRESSION [1] [%] | % mRNA EXPRESSION [2] [%] | % mRNA INHIBITION [2] [%]
19 | 18104 (antisense eA*eG*eA*eG*eA*dA*dA*d[5mC]*dT*dA*dG*dT*dA*dA*dG*eA*eG*eT*e[5mC]*eT) [compound 18104] |  |  | 60.0 | 40.0
20 | 18105 (antisense eT*eG*eG*e[5mC]*eA*dT*d[5mC]*d[5mC]*dA*d[5mC]*d[5mC]*d[5mC]*dG*dG*d[5mC]*eA*eG*eA*eT*eG) [compound 18105] |  |  | 32.0 | 68.0
21 | 18106 (antisense TCGAGAAACAGAGATGTAGA; listed as DNA, chemistry not fully specified) [compound 18106] |  |  | 51.0 | 49.0
22 | 18107 (antisense eT*eG*eG*eA*eG*d[5mC]*dT*dT*dA*dG*dG*d[5mC]*dA*d[5mC]*d[5mC]*eT*e[5mC]*e[5mC]*eT*eA) [compound 18107] |  |  | 58.0 | 42.0
23 | 18108 (antisense eT*eG*eG*eG*eG*dA*dA*dA*dG*d[5mC]*d[5mC]*dA*dG*dG*dA*eA*eT*e[5mC]*eT*eA) [compound 18108] |  |  | 82.0 | 18.0
24 | 18109 (antisense e[5mC]*eA*eG*e[5mC]*eA*d[5mC]*dA*dA*dA*dG*dA*dG*dA*dA*dG*eA*eA*eT*eG*eA) [compound 18109] |  |  | 45.5 | 54.5
25 | 18111 (antisense eA*eA*eG*eT*e[5mC]*d[5mC]*dG*dG*dT*dT*d[5mC]*dT*dT*dA*dT*eA*e[5mC]*eT*e[5mC]*eG) [compound 18111] |  |  | 38.0 | 62.0
26 | 18112 (antisense eG*e[5mC]*eA*eG*eG*dT*dA*dA*dT*d[5mC]*d[5mC]*dT*dT*dT*dT*eA*eG*eT*eG*eT) [compound 18112] |  |  | 42.0 | 58.0
27 | 18114 (antisense e[5mC]*eG*eA*eA*eT*d[5mC]*d[5mC]*dT*dG*d[5mC]*d[5mC]*d[5mC]*d[5mC]*dA*dA*eA*eG*eA*eG*e[5mC]) [compound 18114] |  |  | 25.6 | 74.4
28 | 18115 (antisense eA*e[5mC]*eT*eG*e[5mC]*dG*d[5mC]*d[5mC]*dG*dA*dA*dT*d[5mC]*d[5mC]*dT*eG*e[5mC]*e[5mC]*e[5mC]*e[5mC]) [compound 18115] |  |  | 33.5 | 66.5
29 | 18116 (antisense eT*eT*eG*eA*eT*dG*dA*dT*dG*dA*d[5mC]*dA*dA*d[5mC]*dG*eA*eT*eG*eA*e[5mC]) [compound 18116] |  |  | 65.6 | 34.4
30 | 18117 (antisense e[5mC]*eT*eG*eT*eT*dG*dT*dT*dT*dG*dT*dT*dT*d[5mC]*dT*e[5mC]*eT*eG*e[5mC]*eT) [compound 18117] |  |  | 46.7 | 53.3
31 | 18118 (antisense eT*eG*eT*eT*e[5mC]*dA*dG*d[5mC]*dT*dA*dA*dT*dG*d[5mC]*dT*eT*e[5mC]*eT*eT*e[5mC]) [compound 18118] |  |  | 31.7 | 68.3
32 | 18120 (antisense eT*e[5mC]*e[5mC]*eA*e[5mC]*dT*dT*d[5mC]*dA*dG*dT*d[5mC]*dA*dT*d[5mC]*eA*eA*eG*e[5mC]*eA) [compound 18120] |  |  | 26.7 | 73.3
33 | 18121 (antisense eT*eG*e[5mC]*eT*e[5mC]*dA*dA*dT*dA*d[5mC]*dT*d[5mC]*dT*d[5mC]*dT*eT*eT*eT*eT*eA) [compound 18121] |  |  | 114.0 | 
34 | 18122 (antisense eA*eG*eG*e[5mC]*e[5mC]*d[5mC]*dA*dG*d[5mC]*dA*dA*dA*d[5mC]*dT*dT*eG*e[5mC]*e[5mC]*e[5mC]*eG) [compound 18122] |  |  | 42.0 | 58.0
35 | 18123 (antisense eA*eA*e[5mC]*eG*eG*d[5mC]*dA*dA*dG*dG*d[5mC]*dA*dG*d[5mC]*dA*eA*eT*eA*e[5mC]*e[5mC]) [compound 18123] |  |  | 42.0 | 58.0

— patent publication US7897582B2, “Oligonucleotide compositions and methods for the modulation of the expression of B7 protein” (Isis Pharmaceuticals, Inc., priority 2003, dated 2011)
